{
  "source": "patent US7759542B2",
  "about": "“Glycine N-methyltransferase (GNMT) animal model and use thereof” (priority 2007, dated 2010)",
  "key": {"HuH-7 cells": {"system": "HuH-7 cells", "test": "MTT cytotoxicity assay of AFB1 on HuH-7 cells", "format": "cell-based", "protocol": "MTT assay was used to determine the cytotoxicity effect of AFB1. In brief, cells were seeded on 96 well plate. At the time of assay, culture medium was replaced by 100 μL fresh medium containing 10 μL of 5 mg/mL MTT stock solution for each well. After 4 hr of labeling cells with MTT, medium was removed then 100 μL DMSO was added to each well for 10 min at 37° C. Samples were mixed and read absorbance at 540 nm. For half lethal concentration (LC50) determination, seven thousand HuH-7 cells were seeded on 96 well plate for 18 hr. Cells were treated with different concentration of AFB1 and MTT assay was performed at series time points, triplicate for each set. The survival percentage is calculated by dividing the OD value of treatment group by solvent control group. For cytotoxicity assay, five thousand HuH-7 cells were infected with different amount of adenovirus or lentivirus carrying GNMT cDNA for 8 hr then refreshed medium for another 10 hr. After 72 hr of AFB1 treatment, MTT assay was performed to determine the survival percentage.\nMTT assay was used to determine the percentage of survived cells. To optimize the condition of cytotoxicity assay, HuH-7 cells were treated with different concentrations of AFB1 for series time course. […] The cytotoxicity effect of treatment up to 16 μM AFB1 was obscure within 24 hr. […]"}, "wild-type mice [1]": {"system": "wild-type mice", "conditions": "mouse, in vivo"}, "Gnmt−/− mice": {"system": "Gnmt−/− mice", "conditions": "mouse, in vivo"}, "wild-type mice [2]": {"system": "wild-type mice", "conditions": "mouse, in vivo", "remark": "listed apart in the source"}, "GNMT-TG mice": {"system": "GNMT-TG mice", "conditions": "mouse, in vivo"}, "GNMT": {"system": "GNMT", "format": "cell-based"}},
  "note": "Values joined by “and” are separate entries in the source; they are usually repeats but may differ in a detail not shown here. Identical values can stand only once. “Also recorded” adds a separate entry of the source. Like-named read-outs stand apart in the source and are kept apart here.",
  "data": [
    {"substance": "aflatoxin B1 [AFB1]", "values": [
      {"measurement": "cytotoxicity effect", "setting": "HuH-7 cells", "result": "obscure"},
      {"measurement": "HE staining of histological liver sections", "setting": "wild-type mice [1]", "result": "no abnormalities"},
      {"measurement": "ALT", "setting": "wild-type mice [1]; ip", "result": "27.5 ± 0.71 U/L and 22.83 ± 3.92 U/L"},
      {"measurement": "AST", "setting": "wild-type mice [1]; ip", "result": "72.00 ± 58.92 U/L and 42.50 ± 8.22 U/L"},
      {"measurement": "Nodules <0.5 cm", "setting": "wild-type mice [1]; ip", "result": 0},
      {"measurement": "Nodules >0.5 cm", "setting": "wild-type mice [1]; ip", "result": 0},
      {"measurement": "HE staining of histological liver sections", "setting": "Gnmt−/− mice", "result": "Dysplastic nodule, early HCC and fatty nodules; also recorded: Sclenosing HCC, Dysplastic nodule with focal fatty change"},
      {"measurement": "Nodules <0.5 cm", "setting": "Gnmt−/− mice; ip", "result": "3 and 6"},
      {"measurement": "Nodules >0.5 cm", "setting": "Gnmt−/− mice; ip", "result": "4 and 5"},
      {"measurement": "Pathological examination of liver", "setting": "wild-type mice [2]", "result": "dysplasia and HCC"},
      {"measurement": "ALT", "setting": "wild-type mice [2]; ip", "result": "134 ± 112 and 109 ± 97"},
      {"measurement": "liver/body weight %", "setting": "wild-type mice [2]; ip", "result": "4.7 ± 0.3% and 4.0 ± 0.7%"},
      {"measurement": "Pathological examination of liver", "setting": "GNMT-TG mice", "result": "normal pattern"},
      {"measurement": "ALT", "setting": "GNMT-TG mice; ip", "result": "61 ± 37 and 100 ± 73"},
      {"measurement": "liver/body weight %", "setting": "GNMT-TG mice; ip", "result": "4.5 ± 0.9% and 3.7 ± 0.4%"},
      {"measurement": "GNMT distribution following AFB1 treatment", "setting": "GNMT", "result": "partly translocated to cell nuclei"}
    ]}
  ]
}
